Experimental data as given in patent publication US20060241174A1, “Vitamin E tocotrienols inhibition of intracellularly obligate pathogen Chlamydia and methods of use” (priority 2005, published 2006).

Tests used:
C. trachomatis SVK = assay: Flow cytometry on Chlamydia-infected human B-lymphocytes (JY) treated with delta tocotrienol; type: cell-based, Chlamydia trachomatis
Method: FIG. 5 illustrates flow cytometry on Chlamydia-infected human B-lymphocytes treated with delta tocotrienol. Human B-lymphocyte (JY) cells were treated with a 30 μmol/L concentration of delta tocotrienol in culture for 4 hours, infected with C. trachomatis SVK for 24-72 hours. Immunofluorescent Chlamydia-positive cells were detected by flow cytometry.
Chlamydial Strains: Stocks of C. trachomatis serovar K/VR887 were grown in J774A.1 cells without centrifuge assistance. Infected cells were lysed, this stock aliquoted and frozen down in SPG freeze medium (75.0 g sucrose, 0.52 g potassium phosphate, 1.22 g sodium phosphate dibasic, 0.72 g glutamic acid, diluted in […] ddH2O). These aliquots were stored in liquid N2 or at −80° C., and later thawed for use to infect monolayers.
Cell Lines Used: Mouse macrophages (J774A.1), human mammary tumor cells (MCF-7), and human epithelial cells (Hep-2), were obtained from the American Type Culture collection. Human mammary tumor cells (TMX2-28) were a kind gift from Dr. Arcaro, and human B-lymphocytes (JY) were a kind gift from Dr. Eric Martz. All cell lines were maintained in Richter's improved MEM insulin (IMEMZO, Irvine Scientific, Santa Ana, Calif.) with 5% fetal bovine serum (FBS, Atlanta Biologicals, Norcross, Ga.). Cells were grown to 80% confluence on 12 mm coverslips in 12 well plates (Becton Dickinson Labware, Franklin Lakes, N.J.). A dilution of 1:125 or 1:200 of the C. trachomatis serovar K stock was made using the standard complete cycloheximide overlay media (Bio-Whittaker, Walkersville, Md.) containing 10% FBS, and 1× L-glutamine (CCOM). This was layered onto the coverslip containing monolayers, and incubated for 24-48 hours at 37° C. with 5% CO2. Coverslips with the cell monolayers were harvested, rinsed with phosphate buffered saline (PBS), fixed with 70% cold methanol, stored and subsequently immunostained. […]
Immunostaining: Briefly, infected cells were immunostained with a 1:2 dilution of guinea pig anti-chlamydia polyclonal antibody (Biomeda, Foster City, Calif.), or a 1:125 dilution of rabbit anti-chlamydia EB whole serum for 1 hour at 37° C. Following PBS rinses X3, the bound antibodies were detected using a 1:100 dilution of FITC-conjugated donkey anti-guinea pig or a 1:125 dilution of TRITC-conjugated goat anti-rabbit secondary antibodies (Jackson ImmunoResearch, West Grove, Pa.). […] For photography, slides were assessed in the Massachusetts Central Microscopy Facility using a Zeiss LSM 510 Meta Confocal System and 630× magnification. […]
Samples were analyzed for carriage of Chlamydia-infected cells by FACScan (Becton, Dickinson and Company, Franklin Lakes, N.J.).

C. trachomatis serovar K = assay: Infection of delta tocotrienol-pretreated cell lines (J774A.1, MCF-7, TMX2-28, Hep-2, JY), immunofluorescence with microscopy or flow cytometry; type: cell-based, Chlamydia trachomatis; details: 10-30 μmol/L for 6 hours prior to infection
Method: Delta tocotrienol is a vitamin E compound also available as dietary supplement. […] Since Chlamydia species enter cells via cholesterol-rich lipid raft domains involved in cholesterol trafficking, tocotrienols in general and hypocholesterolemic delta tocotrienol in particular will reduce infection by Chlamydia. Mouse macrophages (J774A.1), human mammary tumor cells (MCF-7, TMX2-28), human epithelial cells (Hep-2), and human B-lymphocytes (JY) were incubated with delta tocotrienol at concentrations of 10-30 μmol/L for 6 hours prior to infection by C. trachomatis serovar K, a subspecies of Chlamydia that is the primary cause of bacteria-initiated STD. Infections were detected by immunofluorescence staining followed by either microscopy or quantitative flow cytometric analysis. Infection levels in cells pretreated with delta-tocotrienol were decreased by >50%, with concomitant aberrant pathogen development observed with confocal microscopy. The number of large and small inclusions in the delta tocotrienol-versus-control cells was decreased by 3- and 2-fold, respectively. […] The impact of dietary delta tocotrienol on Chlamydia infection in hyperlipidemic patients is being examined in a clinical study. Cholesterol-suppressive delta tocotrienol may have the potential to reduce Chlamydia infection in humans.

LDL = LDL levels in hyperlipidemic patients before and after delta-tocotrienol supplementation; type: in vivo, human
Method: In a clinical study, buffy coats from blood samples drawn both before and after delta-tocotrienol supplementation were immunostained for detection of Chlamydia-infected cells. The samples were tested for LDL levels both before and after delta-tocotrienol supplementation.

Chlamydia = assay: Chlamydia-infected human mammary tumor cells (TMX2-28) treated with delta tocotrienol; type: cell-based
Method: FIG. 7 illustrates Chlamydia-infected human mammary tumor cells treated with delta tocotrienol (630× magnification). Human mammary tumor cells (TMX2-28) were infected with Chlamydia for 72 hours and treated with a 15 μmol/L concentration of delta tocotrienol (FIG. 7A). Controls were left untreated (FIG. 7B).

tumors = details: background statement, no source given; cited from earlier work

## delta tocotrienol
C. trachomatis SVK; at 36 hours, 30 μmol/L, flow cytometry
  maximum chlamydial inhibition in JY cells: 2.6 fold
C. trachomatis SVK; following one single tocotrienol treatment
  persistence of effect: at least 3 days
C. trachomatis SVK; one single tocotrienol treatment
  period in which chlamydial inhibition was effective: ≤ 1 days
C. trachomatis SVK; over an infection period of 72 hours, 30 μmol/L, flow cytometry
  chlamydial inhibition in JY cells: at least 2 fold
C. trachomatis serovar K
  decrease in number of large inclusions versus control cells: 3 fold
  decrease in number of small inclusions versus control cells: 2 fold
  decrease of infection levels in pretreated cells: > 50%
LDL; Patient 1 (Chlamydia negative before supplementation)
  % Decrease in LDL: 20%
LDL; Patient 2 (Chlamydia positive before supplementation)
  % Decrease in LDL: 7%
LDL; Patient 3 (Chlamydia strong positive before supplementation)
  % Decrease in LDL: 25%
Chlamydia
  apoptosis of Chlamydia-infected, tocotrienol-treated cancer cells: did not appear to become apoptotic
Chlamydia; 15 μmol/L, infected 72 hours, untreated >20 μm
  inclusion size in tocotrienol treated mammary tumor cells: 10-15 μm
Cells in culture
  cell number compared to cells grown in culture medium: no difference in cell number
tumors
  reduction of tumors: ≤ 70%
